Measurements: patent US20230133958A1, “COMPOUNDS USEFUL IN MODULATING EGFR AND PI3K” (Mekanistic Therapeutics LLC, priority 2021, published 2023)

How the values were obtained:
PI3Kα = PI3Kα (Homo sapiens, UniProt P42336); assay: Z'-LYTE / Adapta biochemical kinase assay, PI3Kα; details: for inhibition at 0.1 µM: concentration of 100 nM/liter, read-out: Percent Inhibition of target enzymes, PI3K A
Text: The Z′-LYTE® biochemical assay employs a fluorescence-based, coupled-enzyme format and is based on the differential sensitivity of phosphorylated and non-phosphorylated peptides to proteolytic cleavage. The peptide substrate is labeled with two fluorophores—one at each end—that make up a FRET pair. In the primary reaction, the kinase transfers the gamma-phosphate of ATP to a single tyrosine, serine or threonine residue in a synthetic FRET-peptide. In the secondary reaction, a site-specific protease recognizes and cleaves non-phosphorylated FRET-peptides. Phosphorylation of FRET-peptides suppresses cleavage by the Development Reagent. Cleavage disrupts FRET between the donor (i.e., coumarin) and acceptor (i.e., fluorescein) fluorophores on the FRET-peptide, whereas uncleaved, phosphorylated FRET-peptides maintain FRET. A ratiometric method, which calculates the ratio (the Emission Ratio) of donor emission to acceptor emission after excitation of the donor fluorophore at 400 nm, is used to quantitate reaction progress.
A significant benefit of this ratiometric method for quantitating reaction progress is the elimination of well-to-well variations in FRET-peptide concentration and signal intensities. As a result, the assay yields very high Z′-factor values (>0.7) at a low percent phosphorylation.
Both cleaved and uncleaved FRET-peptides contribute to the fluorescence signals and therefore to the Emission Ratio. The extent of phosphorylation of the FRET-peptide can be calculated from the Emission Ratio. The Emission Ratio will remain low if the FRET-peptide is phosphorylated (i.e., no kinase inhibition) and will be high if the FRET-peptide is non-phosphorylated (i.e., kinase inhibition).
Enzyme: The ADAPTA universal kinase assay is a homogenous, fluorescent based immunoassay for the detection of ADP. In contrast to ATP depletion assays, the ADAPTA assay is extremely sensitive to ADP formation such that a majority of the signal change occurs in the first 10-20% conversion of ATP to ADP. This makes the ADAPTA universal kinase assay ideally suited for use with low activity kinases.
The principle of the ADAPTA universal kinase assay is outlined below. The assay itself can be divided into two phases: a kinase reaction phase, and an ADP detection phase. In the kinase reaction phase, all components required for the kinase reaction are added to the well, and the reaction is allowed to incubate for 60 minutes. After the reaction, a detection solution consisting of a europium labeled anti-ADP antibody, an Alexa Fluor® 647 labeled ADP tracer, and EDTA (to stop the kinase reaction) is added to the assay well. ADP formed by the kinase reaction (in the absence of an inhibitor) will displace the Alexa Fluor® 647 labeled ADP tracer from the antibody, resulting in a decrease in the TR-FRET signal. In the presence of an inhibitor, the amount of ADP formed by the kinase reaction is reduced, and the resulting intact antibody-tracer interaction results in a high TR-FRET signal.
Test Compounds: The Test Compounds are screened in 1% DMSO (final) in the well. For 10 point titrations, 3-fold serial dilutions are conducted from the starting concentration of the customer’s choosing.
Peptide/Kinase Mixtures: All Peptide/Kinase Mixtures are diluted to a 2X working concentration in the appropriate Kinase Buffer.
ATP Solution: All ATP Solutions are diluted to a 4X working concentration in Kinase Buffer (50 mM HEPES pH 7.5, 0.01% BRIJ-35, 10 mM MgCl2,1 mM EGTA). ATP Km apparent is previously determined using a Z′-LYTE® assay.
Development Reagent Solution: The Development Reagent is diluted in Development Buffer.
Assay Protocol: Bar-coded Corning, low volume NBS, black 384-wellplate (Corning Cat. #4514) 1. 2.5 µL - 4X Test Compound or 100 nL 100X plus 2.4 µL kinase buffer. 2. 5 µL - 2X Peptide/Kinase Mixture. 3. 2.5 µL - 4X ATP Solution. 4. 30-second plate shake. 5. 60-minute Kinase Reaction incubation at room temperature. 6. 5 µL - Development Reagent Solution. 7. […]

LOX IMVI = assay: NCI COMPARE panel (SRB growth inhibition), LOX IMVI; type: cell-based; details: Homo sapiens, Melanoma, 48 h
Experimental: (§1) The human tumor cell lines of the cancer screening panel are grown in RPMI 1640 medium containing 5% fetal bovine serum and 2 mM L-glutamine. For a typical screening experiment, cells are inoculated into 96 well microtiter plates in 100 µL at plating densities ranging from 5,000 to 40,000 cells/well depending on the doubling time of individual cell lines. After cell inoculation, the microtiter plates are incubated at 37° C., 5% CO2, 95% air and 100% relative humidity for 24 h prior to addition of experimental drugs.
(§2) After 24 h, two plates of each cell line are fixed in situ with TCA, to represent a measurement of the cell population for each cell line at the time of drug addition (Tz). Experimental drugs are solubilized in dimethyl sulfoxide at 400-fold the desired final maximum test concentration and stored frozen prior to use. […]
(§3) Following drug addition, the plates are incubated for an additional 48 h at 37° C., 5 % CO2, 95% air, and 100% relative humidity. […] Bound stain is subsequently solubilized with 10 mM trizma base, and the absorbance is read on an automated plate reader at a wavelength of 515 nm. […] Using the seven absorbance measurements [time zero, (Tz), control growth, (C), and test growth in the presence of drug at the five concentration levels (Ti)], the percentage growth is calculated at each of the drug concentrations levels. Percentage growth inhibition is calculated as: […]

OVCAR-4 = assay: NCI COMPARE panel (SRB growth inhibition), OVCAR-4; type: cell-based; details: Homo sapiens; Ovarian Cancer, OVCAR-4, 48 h
Experimental: as §1, §2, §3

786-0 = assay: NCI COMPARE panel (SRB growth inhibition), 786-0; type: cell-based; details: Homo sapiens; Renal Cancer, 786-0, 48 h
Experimental: as §1, §2, §3

Sequence of PI3Kα (P42336 whole entry): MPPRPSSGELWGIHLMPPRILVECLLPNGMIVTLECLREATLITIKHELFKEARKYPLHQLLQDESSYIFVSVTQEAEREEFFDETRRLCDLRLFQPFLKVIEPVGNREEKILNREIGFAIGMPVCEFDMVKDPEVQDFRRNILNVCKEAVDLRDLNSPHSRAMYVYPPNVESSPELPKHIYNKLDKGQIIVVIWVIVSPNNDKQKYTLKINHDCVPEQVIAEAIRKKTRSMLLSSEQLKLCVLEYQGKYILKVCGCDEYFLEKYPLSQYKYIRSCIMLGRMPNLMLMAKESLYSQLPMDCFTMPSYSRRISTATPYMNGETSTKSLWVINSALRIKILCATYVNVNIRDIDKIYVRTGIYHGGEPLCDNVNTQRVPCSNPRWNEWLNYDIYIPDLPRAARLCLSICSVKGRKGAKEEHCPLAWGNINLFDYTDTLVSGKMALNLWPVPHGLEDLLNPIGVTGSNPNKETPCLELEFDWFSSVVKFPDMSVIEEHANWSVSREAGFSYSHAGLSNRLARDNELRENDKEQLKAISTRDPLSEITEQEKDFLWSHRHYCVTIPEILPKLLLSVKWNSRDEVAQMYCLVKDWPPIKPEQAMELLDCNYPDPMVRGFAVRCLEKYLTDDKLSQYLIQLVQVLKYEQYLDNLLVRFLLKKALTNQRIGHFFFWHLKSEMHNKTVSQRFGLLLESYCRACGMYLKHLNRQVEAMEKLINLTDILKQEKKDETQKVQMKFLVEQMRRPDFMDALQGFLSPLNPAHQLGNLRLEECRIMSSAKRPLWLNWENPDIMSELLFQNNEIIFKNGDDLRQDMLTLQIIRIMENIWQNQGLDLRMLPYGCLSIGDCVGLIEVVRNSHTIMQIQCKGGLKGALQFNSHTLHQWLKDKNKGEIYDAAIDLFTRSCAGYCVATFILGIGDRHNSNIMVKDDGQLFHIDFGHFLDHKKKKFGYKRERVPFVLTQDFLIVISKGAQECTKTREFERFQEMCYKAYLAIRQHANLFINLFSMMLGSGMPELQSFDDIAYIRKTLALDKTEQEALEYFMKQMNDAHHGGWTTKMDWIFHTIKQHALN
Sequence of PI3Kα (P27986 whole entry partner): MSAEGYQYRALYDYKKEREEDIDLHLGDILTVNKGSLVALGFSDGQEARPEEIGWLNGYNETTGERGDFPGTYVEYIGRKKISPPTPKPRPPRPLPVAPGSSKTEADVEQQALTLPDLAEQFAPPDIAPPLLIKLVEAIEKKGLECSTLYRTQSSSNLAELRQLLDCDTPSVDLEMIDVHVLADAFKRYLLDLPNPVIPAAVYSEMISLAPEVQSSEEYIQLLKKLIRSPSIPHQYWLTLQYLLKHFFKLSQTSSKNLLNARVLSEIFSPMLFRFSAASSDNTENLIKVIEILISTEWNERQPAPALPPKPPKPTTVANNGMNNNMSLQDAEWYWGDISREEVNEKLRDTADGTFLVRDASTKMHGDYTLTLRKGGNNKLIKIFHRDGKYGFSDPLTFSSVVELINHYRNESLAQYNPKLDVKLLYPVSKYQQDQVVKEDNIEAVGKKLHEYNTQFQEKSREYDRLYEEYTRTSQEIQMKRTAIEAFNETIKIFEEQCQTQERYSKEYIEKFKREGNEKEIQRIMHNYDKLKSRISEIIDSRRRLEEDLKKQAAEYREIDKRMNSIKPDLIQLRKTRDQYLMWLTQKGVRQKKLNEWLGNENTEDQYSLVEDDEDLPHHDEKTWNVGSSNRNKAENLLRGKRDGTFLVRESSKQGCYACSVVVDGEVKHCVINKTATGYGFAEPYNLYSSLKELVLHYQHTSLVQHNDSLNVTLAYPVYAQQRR

Compound	inhibition at 0.1 µM (PI3Kα) [%]	GI50 (LOX IMVI) [µM]	GI50 (OVCAR-4) [µM]	GI50 (786-0) [µM]	IC50 (PI3Kα; PI3Kα) [µM]
CS(=O)(=O)Nc1cc(-c2ccc3ncc(C#N)c(Nc4cccc(Cl)c4F)c3c2)cnc1Cl [Compound 10, N-[2-chloro-5-[4-(3-chloro-2-fluoro-anilino)-3-cyano-6-quinolyl]-3-pyridyl]methanesulfonamide]	> 90	0.075 to 0.125	> 0.25	> 0.25	–
CS(=O)(=O)Nc1cc(-c2ccc3ncnc(Nc4cccc(Cl)c4F)c3c2)cnc1Cl [Compound 6, N-[2-chloro-5-[4-(3-chloro-2-fluoro-anilino)quinazolin-6-yl]-3-pyridyl] methanesulfonamide]	> 90	0.125 to 0.25	> 0.25	0.125 to 0.25	≤ 0.002
